Test in all cases: microbe, parasite or virus in culture
Common to all, as to format: cell-based

The test system of assay [1] is HCV 1a RLuc cells (dicistronic genotype 1a H77 replicon, RLuc reporter). As to conditions: Hepatitis C virus, read-out: 1a. Summed up: (§1)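 Renilla luciferase HCV replicon cells: dicistronic 1b Con1, 1a H77 or 2a JFH-1 replicons, or a JFH-1 chimera carrying J6 NS5A (M31 present). Compound in DMSO serial dilutions, 72 h incubation, then lysis and luciferase read. EC50 by non-linear regression.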

Assay [2] relates to HCV 2a JFH-1 Rluc cells (dicistronic genotype 2a JFH-1 replicon, RLuc reporter). Particulars: Hepatitis C virus, genotype 2a JFH-1 replicon, read-out: 2a JFH. The essentials:
as §1

For assay [3], the system named is HCV 1b RLuc cells (dicistronic genotype 1b Con1 replicon, RLuc reporter). Particulars: Hepatitis C virus, read-out: 1b (nM). The essentials:
as §1

For assay [4], the system named is HCV 4a Rluc cells (NS5A chimeric genotype 1b Con1 replicon with genotype 4a NS5A gene). Particulars: Hepatitis C virus, read-out: 4a. The essentials: (§2)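 Replicon cells stably carrying the listed RLuc-encoding dicistronic replicons were seeded and treated with DMSO serial dilutions of compound (10 mM stocks) diluted into culture medium. After 72 h, cells were lysed and Renilla luciferase activity measured. EC50 was derived by non-linear regression.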

The test system of assay [5] is HCV 3a RLuc cells (NS5A chimeric genotype 1b Con1 replicon with consensus genotype 3a NS5A gene). Particulars: Hepatitis C virus. Summed up:
as §2

Where [6] appears, read: read-out: 3a, genotype 3a replicon.
The mark [7] stands for this setting: 72 h, Table 2, genotype 1a H77 replicon, 72 hours.
Where [8] appears, read: read-out: 3a, Table 2, genotype 3a NS5A chimeric replicon.
Where [9] appears, read: genotype 1a H77 replicon, RLuc reporter.
Setting [10] is: read-out: 3a, genotype 3a NS5A chimeric 1b Con1 replicon.

Where two headings read alike, the source gives them in different places.

Regarding `COC(=O)N[C@H](C(=O)N1CCC[C@H]1c1nc2ccc3cc(-c4ccc5c(c4)CCc4nc(C6CC7(CN6C(=O)[C@H](NC(=O)OC)c6ccccc6)OCCO7)[nH]c4-5)ccc3c2[nH]1)C(C)C` (stereo partly shown) [Example 369], the EC50 in assay [1] (genotype 1a replicon) is 0.001 to 0.999 nM; in assay [2], 0.001 to 0.999 nM; in assay [3], 0.047 nM; in assay [4], 0.001 to 0.99 nM; in assay [5] (setting [6]), 0.001 to 0.99 nM.
For `CC#Cc1cc(-c2cnc([C@@H]3CCCN3C(=O)[C@@H](NC(=O)OC)C(C)C)[nH]2)ccc1-c1ccc(-c2cnc([C@@H]3CCCN3C(=O)[C@@H](NC(=O)OC)C3CCOCC3)[nH]2)cc1` [Example 347], the EC50 in assay [1] (genotype 1a replicon) was 0.001 to 0.999 nM; in assay [2] it was 0.001 to 0.999 nM; in assay [3], 0.055 nM; in assay [4], 0.001 to 0.99 nM; in assay [5] (setting [6]), 0.001 to 0.99 nM.
Turning to `COC(=O)N[C@H](C(=O)N1CCC[C@H]1c1nc2ccc3cc(-c4ccc5cc(-c6cnc([C@@H]7[C@H]8CC[C@H](C8)N7C(=O)[C@H](NC(=O)OC)c7ccccc7)[nH]6)ccc5c4)ccc3c2[nH]1)C1CCOCC1` [Example 84], the EC50 in assay [1] (setting [7]) is 0.001 to 0.999 nM; in assay [2] (72 h, Table 2, 72 hours) it was 0.001 to 0.999 nM; in assay [3] (72 h), 0.007 nM; in assay [4] it was 0.001 to 0.99 nM; in assay [5] (setting [8]), 0.001 to 0.99 nM.
For the molecule `COC(=O)N[C@H](C(=O)N1CCC[C@H]1c1ncc(-c2ccc(-c3ccc(-c4cnc([C@@H]5Cc6ccccc6N5C(=O)[C@@H](NC(=O)OC)C(C)C)[nH]4)cc3)cc2)[nH]1)C(C)C` [Example 266], the EC50 is 0.001 to 0.999 nM in assay [1] (setting [9]); 1 to 44 nM in assay [2] (RLuc reporter); 0.009 nM in assay [3]; 0.001 to 0.99 nM in assay [4]; 1 to 4.99 nM in assay [5] (setting [10]).
For `COC(=O)N[C@H](C(=O)N1CCC[C@H]1c1ncc(-c2ccc(-c3ccc(-c4cnc([C@@H]5CCCN5C(=O)[C@H](NC(=O)OC)c5ccccc5)[nH]4)cc3)cc2)[nH]1)C(C)C` [Example 60], the EC50 in assay [1] (setting [7]) is 1 to 44 nM; in assay [2] (72 h, Table 2, 72 hours), 0.001 to 0.999 nM; in assay [3] (72 h), 0.02 nM; in assay [4] it was 0.001 to 0.99 nM; in assay [5] (setting [8]), 0.001 to 0.99 nM.
Consider `COC(=O)NC(C(=O)N1CC2(CC2)C[C@H]1c1ncc(-c2ccc(-c3ccc4cc(-c5cnc([C@@H]6CCCN6C(=O)[C@H](NC(=O)OC)c6ccccc6)[nH]5)ccc4c3)cc2)[nH]1)[C@@H](C)OC` (stereo partly shown) [Example 262], for which the EC50 is 0.001 to 0.999 nM in assay [1] (setting [9]); 0.001 to 0.999 nM in assay [2] (RLuc reporter); 0.008 nM in assay [3]; 0.001 to 0.99 nM in assay [4]; 0.001 to 0.99 nM in assay [5] (setting [10]).
Regarding `COC(=O)N[C@H](C(=O)N1CC2(C[C@H]1c1ncc(-c3ccc(-c4ccc5cc(-c6cnc([C@@H]7CCCN7C(=O)[C@H](NC(=O)OC)c7ccccc7)[nH]6)ccc5c4)cc3)[nH]1)OCCO2)C1CCOCC1` [Example 50], the EC50 was 0.001 to 0.999 nM in assay [1] (setting [7]); 0.001 to 0.999 nM in assay [2] (72 h, Table 2, 72 hours); 0.031 nM in assay [3] (72 h); 0.001 to 0.99 nM in assay [4]; 0.001 to 0.99 nM in assay [5] (setting [8]).
`COC(=O)N[C@H](C(=O)N1CCC[C@H]1c1ncc(-c2ccc3c4ccc(-c5cnc([C@@H]6CCCN6C(=O)[C@@H](NC(=O)OC)[C@@H](C)OC)[nH]5)cc4c4ccccc4c3c2)[nH]1)[C@@H](C)OC` [Example 310]: the EC50 in assay [1] (genotype 1a replicon) was 0.001 to 0.999 nM; in assay [2], 0.001 to 0.999 nM; in assay [3] it was 0.041 nM; in assay [4], 0.001 to 0.99 nM; in assay [5] (setting [6]), 0.001 to 0.99 nM.
In the case of `COC(=O)N[C@H](C(=O)N1[C@H]2CC[C@H](C2)[C@H]1c1nc2ccc3cc(-c4ccc5c(ccc6nc([C@@H]7CCCN7C(=O)[C@@H](NC(=O)OC)C7CCOCC7)[nH]c65)c4)ccc3c2[nH]1)C(C)C` [Example 338], the EC50 in assay [1] (genotype 1a replicon) was 0.001 to 0.999 nM; in assay [2], 0.001 to 0.999 nM; in assay [3], 0.127 nM; in assay [4], 0.001 to 0.99 nM; in assay [5] (setting [6]), 0.001 to 0.99 nM.
For `COC(=O)NC(C(=O)N1[C@@H]2CC[C@@H](C2)[C@H]1c1ncc(-c2ccc(-c3ccc4c(ccc5nc([C@@H]6C[C@H]7C[C@H]7N6C(=O)[C@@H](NC(=O)OC)C(C)C)[nH]c54)c3)cc2F)[nH]1)[C@@H](C)OC` (stereo partly shown) [Example 321], the EC50 in assay [1] (genotype 1a replicon) was 0.001 to 0.999 nM; in assay [2], 0.001 to 0.999 nM; in assay [3] it was 0.006 nM; in assay [4] it was 0.001 to 0.99 nM; in assay [5] (setting [6]) it was 0.001 to 0.99 nM.
Take `COC(=O)N[C@H](C(=O)N1CCC[C@H]1c1nc2c([nH]1)-c1ccc(-c3ccc4cc(-c5cnc([C@@H]6CCCN6C(=O)[C@H](NC(=O)CC6CCOCC6)c6ccccc6)[nH]5)ccc4c3)cc1CC2)C(C)C` [Example 273]: the EC50 is 0.001 to 0.999 nM in assay [1] (setting [9]); 0.001 to 0.999 nM in assay [2] (RLuc reporter); 0.042 nM in assay [3]; 0.001 to 0.99 nM in assay [4]; 0.001 to 0.99 nM in assay [5] (setting [10]).
For `CCN(C(=O)OC)[C@@H](C(=O)N1CCC[C@H]1c1ncc(-c2ccc(-c3ccc4cc(-c5cnc([C@@H]6CCCN6C(=O)[C@@H](NC(=O)OC)C(C)C)[nH]5)ccc4c3)cc2)[nH]1)c1ccccc1` [Example 203], the EC50 is more than 44 nM in assay [1] (setting [9]); 1 to 44 nM in assay [2] (RLuc reporter); 0.124 nM in assay [3]; 0.001 to 0.99 nM in assay [4]; more than 5 nM in assay [5] (setting [10]).
The matching figures for `COC(=O)N[C@H](C(=O)N1CCC[C@H]1c1nc2ccc3cc(-c4ccc5cc(-c6cnc([C@@H]7CCCN7C(=O)[C@H](NC(=O)N7CCOCC7)c7ccccc7)[nH]6)ccc5c4)ccc3c2[nH]1)C(C)C` [Example 288]: 0.001 to 0.999 nM, 0.001 to 0.999 nM, 0.009 nM, 0.001 to 0.99 nM and 0.001 to 0.99 nM.
The matching figures for `COC(=O)N[C@H](C(=O)N1[C@@H]2CC[C@@H](C2)[C@H]1c1nc2ccc3cc(C#Cc4ccc(-c5cnc([C@@H]6CCCN6C(=O)[C@H](NC(=O)OC)c6ccccc6)[nH]5)cc4)ccc3c2[nH]1)C1CCOCC1` [Example 283]: 0.001 to 0.999 nM, 0.001 to 0.999 nM, 0.007 nM, 0.001 to 0.99 nM and 0.001 to 0.99 nM.
Regarding `COC(=O)N[C@H](C(=O)N1CCC[C@H]1c1ncc(-c2cc3c(cc2F)-c2ccc(-c4cnc([C@@H]5CCCN5C(=O)[C@@H](NC(=O)OC)C(C)C)[nH]4)c(F)c2CO3)[nH]1)C(C)C` [Example 341], the EC50 was 0.001 to 0.999 nM in assay [1] (genotype 1a replicon); 0.001 to 0.999 nM in assay [2]; 0.006 nM in assay [3]; 0.001 to 0.99 nM in assay [4]; 0.001 to 0.99 nM in assay [5] (setting [6]).
Take `COC(=O)N[C@H](C(=O)N1CCC[C@H]1c1nc2ccc3cc(-c4ccc5cc(-c6cnc([C@@H]7[C@H]8CC[C@H](C8)N7C(=O)[C@H](NC(=O)OC)c7ccccc7)[nH]6)ccc5c4)ccc3c2[nH]1)C(C)C` [Example 39]: the EC50 is 0.001 to 0.999 nM in assay [1] (setting [7]); 1 to 44 nM in assay [2] (72 h, Table 2, 72 hours); 0.009 nM in assay [3] (72 h); 0.001 to 0.99 nM in assay [4]; 1 to 4.99 nM in assay [5] (setting [8]).
For the molecule `COC(=O)N[C@H](C(=O)N1[C@@H]2C[C@@H]2C[C@H]1c1nc2ccc3cc(-c4ccc(-c5cnc([C@@H]6[C@H]7CC[C@H](C7)N6C(=O)[C@@H](NC(=O)OC)C6CCOCC6)[nH]5)c(F)c4)ccc3c2[nH]1)C(C)C` [Example 320], the EC50 in assay [1] (genotype 1a replicon) was 0.001 to 0.999 nM; in assay [2] it was 0.001 to 0.999 nM; in assay [3], 0.01 nM; in assay [4], 0.001 to 0.99 nM; in assay [5] (setting [6]) it was 0.001 to 0.99 nM.

The values are drawn from patent US10344019B2 (priority 2010, dated 2019).
